In patent US20070031347A1, “Powdered Medicaments Containing A Tiotropium Salt and Salmeterol Xinafoate” (Boehringer Ingelheim Pharma GmbH & Co. KG, priority 2002, published 2007):

Test: compacted bulk volume (tapped density, Ph. Eur. 4 / Carr packed bulk density)
Assay type: physicochemical
Procedure: The compacted bulk volume is determined by the test method of the European Pharmacopoeia 4 (2002): “apparent density after settling”/“density of settled product”, identical to the “tapped density”, measured in grams per millilitre) or as the “Carr packed bulk density” according to the ASTM standard (D6393-99, Standard Test Method for Bulk Solids Characterization by Carr Indices), measured in grams per cm^3. The compacted bulk volume is a measurement of the volume which is taken up by solid, comminuted materials after they have been compacted under defined conditions.

With OCc1cc(C(O)CNCCCCCCOCCCCc2ccccc2)ccc1O (centres unmarked) [salmeterol xinafoate] the compacted bulk volume (crystalline salmeterol xinafoate as obtained from ethanol/tert.butylmethylether, before micronisation) was 0.27 g/mL and the compacted bulk volume (micronised salmeterol xinafoate (air jet mill, grinding pressure 7.5 bar, feed pressure 8.0 bar)) was 0.19 g/mL.
